Measured values: US20230416232A1, “PYRIMIDINE COMPOUNDS, COMPOSITIONS, AND MEDICINAL APPLICATIONS THEREOF” (Blueprint Medicines Corporation, priority 2020, published 2023)
Where two headings read alike, the source gives them in different places.

What was measured:
Format in all cases: cell-based
[1] = molecular target: HER2 (A775_G776insYVMA) expressing Ba/F3 stable cell line (Homo sapiens, UniProt P04626, DUP772-775, cells depend on it); assay: Cellular proliferation (Alamar Blue) assay, HER2 (A775_G776insYVMA) Ba/F3; conditions: HER2 (A775_G776insYVMA) Ba/F3 cells; 72 hr; Alamar Blue; read-out: YVMA IC50
Method in brief: (§1)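 Seed A431 at 5000 and Ba/F3 at 15,000 cells/well in 10% FBS medium and incubate 16-18 h at 37 °C, 5% CO2. Add compound (final 10-0.0005 μM, 3-fold steps) or DMSO for 72 h. Add Alamar Blue and read after 3 h.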

A431 cells = assay: Cellular proliferation (Alamar Blue) assay, A431 cells; conditions: A431 cells, 72 hr, Alamar Blue, read-out: A431 IC50
Method in brief: as §1

[2] = molecular target: EGFR(D770_N771insSVD) expressing Ba/F3 stable cell line (Homo sapiens, UniProt P00533, DUP768-770, cells depend on it); assay: Cellular proliferation (Alamar Blue) assay, EGFR(D770_N771insSVD) Ba/F3; conditions: 72 hr, read-out: D770 IC50
Method in brief: as §1

[3] = molecular target: EGFR (A767_dupASV) expressing Ba/F3 stable cell line (Homo sapiens, UniProt P00533, DUP767-769, cells depend on it); assay: Cellular proliferation (Alamar Blue) assay, EGFR (A767_dupASV) Ba/F3; conditions: 72 hr, read-out: A767 IC50
Method in brief: as §1

Chain of EGFR (A767_dupASV) expressing Ba/F3 stable cell line (P00533 with tags, fused parts or gaps DUP767-769): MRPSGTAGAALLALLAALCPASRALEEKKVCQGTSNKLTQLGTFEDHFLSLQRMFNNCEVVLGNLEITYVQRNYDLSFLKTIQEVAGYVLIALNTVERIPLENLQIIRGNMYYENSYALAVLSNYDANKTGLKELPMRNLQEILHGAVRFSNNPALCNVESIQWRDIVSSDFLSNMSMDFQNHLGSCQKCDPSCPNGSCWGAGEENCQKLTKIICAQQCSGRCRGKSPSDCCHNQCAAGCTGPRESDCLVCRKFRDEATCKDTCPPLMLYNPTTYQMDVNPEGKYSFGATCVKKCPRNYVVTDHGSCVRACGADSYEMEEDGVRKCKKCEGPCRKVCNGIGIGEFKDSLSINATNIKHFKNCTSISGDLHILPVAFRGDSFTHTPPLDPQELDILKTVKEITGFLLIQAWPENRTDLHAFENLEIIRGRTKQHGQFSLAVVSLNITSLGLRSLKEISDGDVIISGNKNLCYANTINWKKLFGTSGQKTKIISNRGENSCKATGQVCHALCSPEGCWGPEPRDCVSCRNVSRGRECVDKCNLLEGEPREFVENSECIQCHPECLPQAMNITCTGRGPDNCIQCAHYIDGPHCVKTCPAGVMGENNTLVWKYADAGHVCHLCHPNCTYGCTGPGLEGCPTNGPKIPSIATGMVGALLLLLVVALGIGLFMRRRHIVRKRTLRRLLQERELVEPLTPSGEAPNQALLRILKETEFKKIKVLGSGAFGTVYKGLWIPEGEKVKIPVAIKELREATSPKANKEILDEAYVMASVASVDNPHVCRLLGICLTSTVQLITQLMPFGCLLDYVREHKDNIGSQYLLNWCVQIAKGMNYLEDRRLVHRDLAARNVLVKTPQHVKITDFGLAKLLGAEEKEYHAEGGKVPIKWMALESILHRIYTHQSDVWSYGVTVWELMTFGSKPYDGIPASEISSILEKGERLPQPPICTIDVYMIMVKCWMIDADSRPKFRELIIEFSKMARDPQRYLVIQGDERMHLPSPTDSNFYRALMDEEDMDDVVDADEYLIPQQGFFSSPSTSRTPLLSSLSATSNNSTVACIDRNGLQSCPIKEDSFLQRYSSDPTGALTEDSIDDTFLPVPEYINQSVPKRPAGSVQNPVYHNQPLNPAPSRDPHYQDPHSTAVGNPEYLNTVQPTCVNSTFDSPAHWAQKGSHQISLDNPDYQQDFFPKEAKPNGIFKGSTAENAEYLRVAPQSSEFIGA
Chain of EGFR(D770_N771insSVD) expressing Ba/F3 stable cell line (P00533 with tags, fused parts or gaps DUP768-770): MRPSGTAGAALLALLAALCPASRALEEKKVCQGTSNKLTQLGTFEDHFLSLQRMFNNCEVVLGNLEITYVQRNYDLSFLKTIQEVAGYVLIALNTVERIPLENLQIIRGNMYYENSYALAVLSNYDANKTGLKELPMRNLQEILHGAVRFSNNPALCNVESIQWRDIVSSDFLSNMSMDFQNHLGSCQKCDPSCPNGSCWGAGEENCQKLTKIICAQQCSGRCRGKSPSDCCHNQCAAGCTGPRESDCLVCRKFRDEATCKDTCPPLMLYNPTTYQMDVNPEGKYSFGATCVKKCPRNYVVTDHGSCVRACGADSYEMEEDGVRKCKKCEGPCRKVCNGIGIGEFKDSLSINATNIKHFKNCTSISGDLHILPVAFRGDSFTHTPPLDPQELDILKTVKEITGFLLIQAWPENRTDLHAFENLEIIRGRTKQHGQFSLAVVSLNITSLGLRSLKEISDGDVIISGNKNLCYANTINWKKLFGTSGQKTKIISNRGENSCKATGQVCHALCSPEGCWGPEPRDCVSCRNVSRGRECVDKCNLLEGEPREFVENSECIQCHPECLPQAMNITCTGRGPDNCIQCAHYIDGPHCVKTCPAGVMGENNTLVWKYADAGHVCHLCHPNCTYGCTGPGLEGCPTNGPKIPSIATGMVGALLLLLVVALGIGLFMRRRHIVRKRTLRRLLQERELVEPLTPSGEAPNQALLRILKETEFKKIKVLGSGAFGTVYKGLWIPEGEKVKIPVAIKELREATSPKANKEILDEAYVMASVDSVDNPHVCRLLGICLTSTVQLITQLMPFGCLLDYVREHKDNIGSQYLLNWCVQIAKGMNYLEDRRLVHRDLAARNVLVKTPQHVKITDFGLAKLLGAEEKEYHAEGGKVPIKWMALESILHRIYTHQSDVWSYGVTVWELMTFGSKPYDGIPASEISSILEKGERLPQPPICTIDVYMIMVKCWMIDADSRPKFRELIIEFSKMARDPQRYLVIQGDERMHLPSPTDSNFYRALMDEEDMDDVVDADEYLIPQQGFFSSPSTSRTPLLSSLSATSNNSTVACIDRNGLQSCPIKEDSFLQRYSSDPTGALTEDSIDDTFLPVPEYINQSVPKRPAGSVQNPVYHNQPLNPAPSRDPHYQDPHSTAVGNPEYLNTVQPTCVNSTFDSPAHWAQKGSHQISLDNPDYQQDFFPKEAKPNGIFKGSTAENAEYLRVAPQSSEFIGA
Chain of HER2 (A775_G776insYVMA) expressing Ba/F3 stable cell line (P04626 with tags, fused parts or gaps DUP772-775): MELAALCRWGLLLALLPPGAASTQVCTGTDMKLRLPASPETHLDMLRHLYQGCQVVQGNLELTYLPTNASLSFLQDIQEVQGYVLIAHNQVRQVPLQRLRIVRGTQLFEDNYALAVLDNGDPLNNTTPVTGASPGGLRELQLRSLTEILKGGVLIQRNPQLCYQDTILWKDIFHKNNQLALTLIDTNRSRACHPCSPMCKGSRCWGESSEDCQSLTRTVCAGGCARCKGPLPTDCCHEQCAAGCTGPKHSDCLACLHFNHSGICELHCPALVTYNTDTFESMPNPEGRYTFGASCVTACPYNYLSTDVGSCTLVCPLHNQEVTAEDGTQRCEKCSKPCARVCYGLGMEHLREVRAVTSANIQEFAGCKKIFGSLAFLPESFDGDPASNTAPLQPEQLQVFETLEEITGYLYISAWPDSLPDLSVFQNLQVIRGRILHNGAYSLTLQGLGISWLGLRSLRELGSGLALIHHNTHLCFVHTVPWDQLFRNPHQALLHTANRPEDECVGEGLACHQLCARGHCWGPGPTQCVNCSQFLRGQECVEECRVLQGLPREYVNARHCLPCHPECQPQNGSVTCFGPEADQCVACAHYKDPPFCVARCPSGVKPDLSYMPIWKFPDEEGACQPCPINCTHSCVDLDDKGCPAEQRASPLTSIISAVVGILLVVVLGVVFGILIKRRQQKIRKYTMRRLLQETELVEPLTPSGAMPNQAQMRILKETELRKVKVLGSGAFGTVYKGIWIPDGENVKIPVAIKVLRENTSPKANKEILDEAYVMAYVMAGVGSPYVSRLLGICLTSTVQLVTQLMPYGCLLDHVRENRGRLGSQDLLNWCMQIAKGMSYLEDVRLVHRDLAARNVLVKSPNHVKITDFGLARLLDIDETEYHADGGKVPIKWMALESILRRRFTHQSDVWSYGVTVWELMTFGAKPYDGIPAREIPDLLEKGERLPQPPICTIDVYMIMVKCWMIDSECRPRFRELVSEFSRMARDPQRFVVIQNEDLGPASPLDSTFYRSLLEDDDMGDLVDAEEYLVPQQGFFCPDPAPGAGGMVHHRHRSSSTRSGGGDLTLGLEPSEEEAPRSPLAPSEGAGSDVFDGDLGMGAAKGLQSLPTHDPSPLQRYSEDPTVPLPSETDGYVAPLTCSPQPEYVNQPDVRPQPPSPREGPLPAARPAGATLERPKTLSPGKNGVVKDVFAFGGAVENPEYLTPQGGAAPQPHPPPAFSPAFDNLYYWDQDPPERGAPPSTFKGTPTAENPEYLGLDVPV

Compound	GI50 [1]	IC50 (A431 cells; Homo sapiens, A-431, 72 h)	GI50 [2]	GI50 [3]	IC50 (A431 cells)
C=CC(=O)Nc1cccc(Nc2nc(Nc3cnn(C)c3)ncc2-c2cc(F)cc(OC)c2)c1 [Compound 127, N-(3-((5-(3-fluoro-5-methoxyphenyl)-2-((1-methyl-1H-pyrazol-4-yl)amino)pyrimidin-4-yl)amino)phenyl)acrylamide]	167 nM	123 nM	89 nM	312 nM	
C=CC(=O)Nc1cc(Br)cc(Nc2nc(Nc3cnn(C)c3)ncc2-c2ccc(OC(F)F)c(F)c2)c1 [Compound 132, N-(3-bromo-5-((5-(4-(difluoromethoxy)-3-fluorophenyl)-2-((1-methyl-1H-pyrazol-4-yl)amino)pyrimidin-4-yl)amino)phenyl)acrylamide]	345 nM	51 nM	34 nM	40 nM	
CN(C)C/C=C/C(=O)Nc1cccc(Nc2nc(Nc3cnn(C)c3)ncc2-c2cc(F)cc(F)c2)c1 [Compound 150, (E)-N-(3-((5-(3,5-difluorophenyl)-2-((1-methyl-1H-pyrazol-4-yl)amino)pyrimidin-4-yl)amino)phenyl)-4-(dimethylamino)but-2-enamide]	237 nM	214 nM	126 nM	110 nM	
C=CC(=O)Nc1cccc(Nc2nc(Nc3cnn(C)c3)ncc2-c2cc(F)c(Br)c(Cl)c2)c1 [Compound 154, N-(3-((5-(4-bromo-3-chloro-5-fluorophenyl)-2-((1-methyl-1H-pyrazol-4-yl)amino)pyrimidin-4-yl)amino)phenyl)acrylamide]	154 nM	1760 nM	34 nM	81 nM	
C=CC(=O)Nc1ccc(F)c(Nc2nc(Nc3cnn(C)c3)ncc2-c2cc(C(F)F)cc(C(F)F)c2)c1 [Compound 155, N-(3-((5-(3,5-bis(difluoromethyl)phenyl)-2-((1-methyl-1H-pyrazol-4-yl)amino)pyrimidin-4-yl)amino)-4-fluorophenyl)acrylamide]	1670 nM	338 nM	107 nM	133 nM	
[2H]c1c(F)cc(-c2cnc(Nc3cnn(C)c3)nc2Nc2cc(NC(=O)C=C)ccc2F)cc1F [Compound 157, N-[3-({5-[3,5-difluoro(4-^2H)phenyl]-2-[(1-methyl-1H-pyrazol-4-yl)amino]pyrimidin-4-yl}amino)-4-fluorophenyl] prop-2-enamide]	151 nM	23 nM	16 nM	35 nM	
C=CC(=O)Nc1ccc(F)c(Nc2nc(Nc3cnn(C)c3)ncc2-c2cc(F)c(F)c(OC(F)F)c2)c1 [Compound 160, N-(3-((5-(3-(difluoromethoxy)-4,5-difluorophenyl)-2-((1-methyl-1H-pyrazol-4-yl)amino)pyrimidin-4-yl)amino)-4-fluorophenyl)acrylamide]	163 nM	261 nM	68 nM	63 nM	
CN(C)C/C=C/C(=O)Nc1ccc(F)c(Nc2nc(Nc3cnn(C)c3)ncc2-c2cc(F)cc(F)c2)c1 [Compound 161, (E)-N-(3-((5-(3,5-difluorophenyl)-2-((1-methyl-1H-pyrazol-4-yl)amino)pyrimidin-4-yl)amino)-4-fluorophenyl)-4-(dimethylamino)but-2-enamide]	62 nM		217 nM	140 nM	759 nM
C=CC(=O)Nc1ccc(F)c(Nc2nc(Nc3cnn(C)c3)ncc2-c2ccc3c(c2)OCC3)c1 [Compound 162, N-(3-((5-(2,3-dihydrobenzofuran-6-yl)-2-((1-methyl-1H-pyrazol-4-yl)amino)pyrimidin-4-yl)amino)-4-fluorophenyl)acrylamide]	428 nM	84 nM	38 nM	116 nM	
[2H]C([2H])([2H])Oc1cc(F)cc(-c2cnc(Nc3cnn(C)c3)nc2Nc2cc(NC(=O)C=C)ccc2F)c1 [Compound 165, N-(4-fluoro-3-((5-(3-fluoro-5-(methoxy-d3)phenyl)-2-((1-methyl-1H-pyrazol-4-yl)amino)pyrimidin-4-yl)amino)phenyl)acrylamide]	208 nM	387 nM	70 nM	110 nM	
Cn1cc(Nc2ncc(-c3ccc(Br)c(F)c3)c(Nc3cc(NC(=O)/C=C/CN4CCC4)ccc3F)n2)cn1 [Compound 166, (E)-4-(azetidin-1-yl)-N-(3-((5-(4-bromo-3-fluorophenyl)-2-((1-methyl-1H-pyrazol-4-yl)amino)pyrimidin-4-yl)amino)-4-fluorophenyl)but-2-enamide]	555 nM	613 nM	75 nM	299 nM	
[2H]C([2H])([2H])n1cc(Nc2ncc(-c3cc(F)cc(F)c3)c(Nc3cc(NC(=O)/C=C/CN(C)C)ccc3F)n2)cn1 [Compound 167, (E)-N-(3-((5-(3,5-difluorophenyl)-2-((1-(methyl-d3)-1H-pyrazol-4-yl)amino)pyrimidin-4-yl)amino)-4-fluorophenyl)-4-(dimethylamino)but-2-enamide]	142 nM	512 nM	84 nM	234 nM	
C=CC(=O)Nc1ccc(F)c(Nc2nc(Nc3cnn(C)c3)ncc2-c2cc(F)cc(OC(F)F)c2)c1 [Compound 168, N-(3-((5-(3-(difluoromethoxy)-5-fluorophenyl)-2-((1-methyl-1H-pyrazol-4-yl)amino)pyrimidin-4-yl)amino)-4-fluorophenyl)acrylamide]	574 nM	67 nM	262 nM	132 nM	

Next, values leading:

GI50 [1]	IC50 (A431 cells; Homo sapiens, A-431, 72 h)	GI50 [2]	GI50 [3]	IC50 (A431 cells)	Compound
1270 nM	394 nM	251 nM	322 nM		C=CC(=O)Nc1ccc(F)c(Nc2nc(Nc3cnn(C)c3)ncc2-c2cc(F)c(C(F)(F)F)c(OC)c2)c1 [Compound 133, N-(4-fluoro-3-((5-(3-fluoro-5-methoxy-4-(trifluoromethyl)phenyl)-2-((1-methyl-1H-pyrazol-4-yl)amino)pyrimidin-4-yl)amino)phenyl)acrylamide]
167 nM	13 nM	16 nM	25 nM		C=CC(=O)Nc1ccc(F)c(Nc2nc(Nc3cnn(C)c3)ncc2-c2cc(F)c(F)c(C(F)F)c2)c1 [Compound 141, N-(3-((5-(3-(difluoromethyl)-4,5-difluorophenyl)-2-((1-methyl-1H-pyrazol-4-yl)amino)pyrimidin-4-yl)amino)-4-fluorophenyl)acrylamide]
92 nM	11 nM	11 nM	34 nM		C=CC(=O)Nc1ccc(F)c(Nc2nc(Nc3cnn(C)c3)ncc2-c2cc(F)c(F)c(F)c2)c1 [Compound 149, N-(4-fluoro-3-((2-((1-methyl-1H-pyrazol-4-yl)amino)-5-(3,4,5-trifluorophenyl)pyrimidin-4-yl)amino)phenyl)acrylamide]
40 nM	8 nM	11 nM	34 nM		C=CC(=O)Nc1cccc(Nc2nc(Nc3cnn(C)c3)ncc2-c2cc(F)c(Br)c(F)c2)c1 [Compound 152, N-(3-((5-(4-bromo-3,5-difluorophenyl)-2-((1-methyl-1H-pyrazol-4-yl)amino)pyrimidin-4-yl)amino)phenyl)acrylamide]
98 nM	1080 nM	13 nM	34 nM		C=CC(=O)Nc1cccc(Nc2nc(Nc3cnn(C)c3)ncc2-c2cc(F)c(C(F)(F)F)c(F)c2)c1 [Compound 153, N-(3-((5-(3,5-difluoro-4-(trifluoromethyl)phenyl)-2-((1-methyl-1H-pyrazol-4-yl)amino)pyrimidin-4-yl)amino)phenyl)acrylamide]
40 nM	10 nM	11 nM	15 nM		C=CC(=O)Nc1ccc(F)c(Nc2nc(Nc3cnn(C)c3)ncc2-c2cc(F)c(Cl)c(F)c2)c1 [Compound 158, N-(3-((5-(4-chloro-3,5-difluorophenyl)-2-((1-methyl-1H-pyrazol-4-yl)amino)pyrimidin-4-yl)amino)-4-fluorophenyl)acrylamide]
125 nM	23 nM	24 nM	29 nM		C=CC(=O)Nc1cc(Cl)cc(Nc2nc(Nc3cnn(C)c3)ncc2-c2ccc(Br)c(F)c2)c1 [Compound 159, N-(3-((5-(4-bromo-3-fluorophenyl)-2-((1-methyl-1H-pyrazol-4-yl)amino)pyrimidin-4-yl)amino)-5-chlorophenyl)acrylamide]
104 nM	128 nM	26 nM	22 nM		C=CC(=O)Nc1cc(F)cc(Nc2nc(Nc3cnn(C)c3)ncc2-c2cc(F)c(Br)c(Cl)c2)c1 [Compound 163, N-(3-((5-(4-bromo-3-chloro-5-fluorophenyl)-2-((1-methyl-1H-pyrazol-4-yl)amino)pyrimidin-4-yl)amino)-5-fluorophenyl)acrylamide]
157 nM	103 nM	22 nM	18 nM		C=CC(=O)Nc1cc(F)cc(Nc2nc(Nc3cnn(C)c3)ncc2-c2cc(F)c(C(F)(F)F)c(F)c2)c1 [Compound 164, N-(3-((5-(3,5-difluoro-4-(trifluoromethyl)phenyl)-2-((1-methyl-1H-pyrazol-4-yl)amino)pyrimidin-4-yl)amino)-5-fluorophenyl)acrylamide]
